In one experiment the test system is mushroom tyrosinase. Nature of the experiment: Anti-tyrosinase activity, L-DOPA as substrate. Format: biochemical. To be noted: for IC50: IC50 ± SD, pH 6.8, read-out: Tyrosinase inhibitory activity IC50. The procedure: All compounds were investigated for potential tyrosinase inhibitory activity.
The anti-tyrosinase activities of the isolates were investigated according to the procedure described by Aoki et al. with slight modifications. […] Solution of L-DOPA at 5.0 mM, mushroom tyrosinase at 100 U/mL, as well as samples at different concentrations were prepared in phosphate buffer (pH 6.8). 20 µL of the sample solution and 10 µL of mushroom tyrosinase solution were mixed and pre-incubated at 37 °C for 10 min, then 40 µL of L-DOPA solution was added and incubated at 37 °C for 5 min. The absorbance was measured at 475 nm using the Spark 10M multimode microplate reader (Tecan Trading AG, Zurich, Switzerland). All assays were repeated three times and each time in triplicate. The percent inhibition of tyrosinase activity was calculated using the following formula:Tyrosinase inhibition (%) = [1 − (T − T0)/(C − C0)] × 100 where T represents the absorbance with sample and tyrosinase; T0 represents the absorbance with sample but no tyrosinase; C represents the absorbance with tyrosinase but no sample; C0 represents the absorbance without tyrosinase and sample.

The subject of experiment [1] is LPS-stimulated RAW 264.7 cells. Kind of experiment: NO production by LPS-stimulated RAW 264.7 cells (Griess). Format: cell-based. The settings on record: Mus musculus, RAW264.7, read-out: IC50 for the inhibition of NO production. The procedure:
Four new compounds 1–4 were tested for potential anti-inflammatory activity by measuring the inhibition of the nitric oxide (NO) production. […] The IC50 values for the inhibition of NO production by compounds 1–4 are all > 50 μM. […] From the experimental results and literature data, the flavonoids in the title plant have better anti-inflammatory activity than ellagitannins, it may be the active ingredient corresponding to the anti-inflammatory effect of this plant.
The RAW 264.7 cells were cultivated in DMEM supplemented with 10% FBS at 37 °C in a humidified atmosphere of 5% CO2 for 24 h. Cells in 24-well plate (5 × 10^4 cells/well) were treated with 200 ng/mL LPS and the test compounds. After 22 h, the media were collected, and the level of nitrite was measured using the Griess Reagent System (Promega, Madison, WI, USA).

The conditions of experiment [2]: cited from earlier work.

`CCOC(=O)C1(O)C(=O)C2=C3C(=O)OC(C2OCC)C2OC(=O)c4c(c(O)c(O)c(O)c4C31)-c1c(cc(O)c(O)c1O)C(=O)OC1COC(=O)c3cc(O)c(O)c(O)c3-c3c(cc(O)c(O)c3O)C(=O)OC12` (stereo not drawn) [Compound 1, Whiskey tannin C]: in the experiment with mushroom tyrosinase, the “tyrosinase inhibitory activity (in words)” value is on record as “weak” and the IC50 (as a rule, the concentration at which inhibition is half-maximal) was 426 ± 11.3 µM. In addition, the IC50 in experiment [1] was greater than 50 µM.

On to `COc1c(O)cc(C(=O)O[C@@H]2O[C@H](COC(=O)c3cc(O)c(O)c(O)c3)[C@@H](O)[C@@H]3OC(=O)c4cc(O)c(O)c(O)c4-c4c(cc(O)c(O)c4O)C(=O)O[C@@H]23)cc1O` [Compound 2, 1-O-(4-methoxygalloyl)-6-O-galloyl-2,3-O-(S)-hexahydroxydiphenoyl-β-D-glucose], for which the IC50 at mushroom tyrosinase was 241 ± 6.23 µM; in experiment [1], greater than 50 µM.

As to `COc1cc(C(=O)OC[C@H]2O[C@@H](OC(=O)c3cc(O)c(O)c(O)c3)[C@@H]3OC(=O)c4cc(O)c(O)c(O)c4-c4c(cc(O)c(O)c4O)C(=O)O[C@H]3[C@@H]2O)cc(O)c1O` [Compound 3, 1-O-galloyl-6-O-(3-methoxygalloyl)-2,3-O-(S)-hexahydroxydiphenoyl-β-D-glucose], the values for the IC50 (on mushroom tyrosinase; in experiment [1]) were 154 ± 3.63 µM and greater than 50 µM, respectively.

As for `COc1cc(C(=O)OC[C@H]2O[C@@H](OC(=O)c3cc(O)c(O)c(O)c3)[C@@H]3OC(=O)c4cc(O)c(O)c(O)c4-c4c(cc(O)c(O)c4O)C(=O)O[C@H]3[C@@H]2O)ccc1O` [Compound 4, 1-O-galloyl-6-O-vanilloyl-2,3-O-(S)-hexahydroxydiphenoyl-β-D-glucose], the IC50 on mushroom tyrosinase is 125 ± 3.12 µM; in experiment [1] it was greater than 50 µM.

Consider `O=c1c(O)c(-c2ccc(O)cc2)oc2cc(O)cc(O)c12` [Compound 7, kaempferol], for which the “anti-inflammatory activity (in words)” value in experiment [2] is reported as “have anti-inflammatory activity”. The IC50 on mushroom tyrosinase was 1900 ± 38.2 µM.

In the case of `C[C@@H]1O[C@@H](Oc2c(-c3ccc(O)cc3)oc3cc(O)cc(O)c3c2=O)[C@H](O)[C@H](O)[C@H]1O` [Compound 8, kaempferol-3-rhamnoside], the “anti-inflammatory activity (in words)” value in experiment [2] was “have no anti-inflammatory activity”. Further, in the experiment with mushroom tyrosinase, the “tyrosinase inhibitory activity (in words)” value is listed as “no significant” and the IC50 was greater than 2000 µM.

For `O=c1c(O)c(-c2ccc(O)c(O)c2)oc2cc(O)cc(O)c12` [Compound 10, quercetin], the “anti-inflammatory activity (in words)” value in experiment [2] is “have anti-inflammatory activity”. Further, the “tyrosinase inhibitory activity (in words)” value in the experiment on mushroom tyrosinase is “significant”.

For the molecule `C[C@@H]1O[C@@H](Oc2c(-c3ccc(O)c(O)c3)oc3cc(O)cc(O)c3c2=O)[C@H](O)[C@H](O)[C@H]1O` [Compound 11, quercetin-3-O-α-L-rhamnoside], the “anti-inflammatory activity (in words)” value in experiment [2] was “have no anti-inflammatory activity”. In addition, the IC50 on mushroom tyrosinase stood at 98.2 ± 2.31 µM.

Consider `C[C@@H]1O[C@@H](Oc2c(-c3cc(O)c(O)c(O)c3)oc3cc(O)cc(O)c3c2=O)[C@H](O)[C@H](O)[C@H]1O` [Compound 12, myricetin-3-O-α-L-rhamnopyranoside], for which, in experiment [2], the “anti-inflammatory activity (in words)” value was “have anti-inflammatory activity”. In the experiment with mushroom tyrosinase, the “tyrosinase inhibitory activity (in words)” value was “no significant” and the IC50 is 905 ± 20.4 µM.
